Data reported in ChEMBL document CHEMBL4507283, “Data for DCP probe BI-1935” (2021).

Key:
[1] = molecular target: BDNF/NT-3 growth factors receptor (Homo sapiens) (UniProt Q16620); details: Compound concentration 1000.0 nM
[2] = molecular target: Serine/threonine-protein kinase pim-3 (Homo sapiens) (UniProt Q86V86); details: Compound concentration 1000.0 nM
[3] = test system: Proto-oncogene tyrosine-protein kinase receptor Ret (Homo sapiens), P07949 [M918T]; details: Compound concentration 1000.0 nM
[4] = molecular target: Serine/threonine-protein kinase PAK 5 (Homo sapiens) (UniProt Q9P286); details: Compound concentration 1000.0 nM
[5] = molecular target: Megakaryocyte-associated tyrosine-protein kinase (Homo sapiens) (UniProt P42679); details: Compound concentration 1000.0 nM
[6] = molecular target: Phosphatidylinositol 5-phosphate 4-kinase type-2 beta (Homo sapiens) (UniProt P78356); details: Compound concentration 1000.0 nM
[7] = test system: Leucine-rich repeat serine/threonine-protein kinase 2 (Homo sapiens), Q5S007 [G2019S]; details: Compound concentration 1000.0 nM
[8] = molecular target: NT-3 growth factor receptor (Homo sapiens) (UniProt Q16288); details: Compound concentration 1000.0 nM
[9] = molecular target: Tyrosine-protein kinase receptor UFO (Homo sapiens) (UniProt P30530); details: Compound concentration 1000.0 nM
Tyrosine-protein kinase receptor UFO (Homo sapiens), sequence (P30530 whole entry): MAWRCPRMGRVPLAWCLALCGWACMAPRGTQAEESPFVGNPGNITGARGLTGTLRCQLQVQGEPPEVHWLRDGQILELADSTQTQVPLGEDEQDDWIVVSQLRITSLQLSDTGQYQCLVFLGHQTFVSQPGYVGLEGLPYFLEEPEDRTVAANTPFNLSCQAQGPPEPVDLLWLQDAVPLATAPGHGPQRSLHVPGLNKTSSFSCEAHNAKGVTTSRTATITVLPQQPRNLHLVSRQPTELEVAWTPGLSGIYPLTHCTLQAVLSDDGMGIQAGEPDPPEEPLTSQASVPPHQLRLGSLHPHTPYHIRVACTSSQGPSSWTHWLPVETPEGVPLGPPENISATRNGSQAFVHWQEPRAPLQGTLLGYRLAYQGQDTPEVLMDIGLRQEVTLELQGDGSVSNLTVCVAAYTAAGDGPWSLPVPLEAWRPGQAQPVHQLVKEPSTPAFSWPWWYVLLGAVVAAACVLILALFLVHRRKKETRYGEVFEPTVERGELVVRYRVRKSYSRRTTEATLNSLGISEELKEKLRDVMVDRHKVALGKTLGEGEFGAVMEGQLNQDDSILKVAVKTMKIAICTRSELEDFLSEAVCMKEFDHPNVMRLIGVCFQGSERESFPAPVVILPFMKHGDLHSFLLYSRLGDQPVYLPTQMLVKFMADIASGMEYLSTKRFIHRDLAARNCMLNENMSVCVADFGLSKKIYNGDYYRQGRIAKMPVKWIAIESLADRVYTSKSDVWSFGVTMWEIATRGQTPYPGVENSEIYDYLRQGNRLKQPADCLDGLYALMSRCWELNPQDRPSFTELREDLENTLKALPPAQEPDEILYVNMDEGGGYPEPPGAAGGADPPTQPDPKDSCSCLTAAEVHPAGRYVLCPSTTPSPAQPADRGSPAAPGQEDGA

[10] = molecular target: Cannabinoid receptor 1 (Homo sapiens) (UniProt P21554); test: CB1/H Eurofins-Panlabs selectivity data (BI); details: Compound concentration 10.0 uM
Cannabinoid receptor 1 (Homo sapiens), sequence (P21554 whole entry): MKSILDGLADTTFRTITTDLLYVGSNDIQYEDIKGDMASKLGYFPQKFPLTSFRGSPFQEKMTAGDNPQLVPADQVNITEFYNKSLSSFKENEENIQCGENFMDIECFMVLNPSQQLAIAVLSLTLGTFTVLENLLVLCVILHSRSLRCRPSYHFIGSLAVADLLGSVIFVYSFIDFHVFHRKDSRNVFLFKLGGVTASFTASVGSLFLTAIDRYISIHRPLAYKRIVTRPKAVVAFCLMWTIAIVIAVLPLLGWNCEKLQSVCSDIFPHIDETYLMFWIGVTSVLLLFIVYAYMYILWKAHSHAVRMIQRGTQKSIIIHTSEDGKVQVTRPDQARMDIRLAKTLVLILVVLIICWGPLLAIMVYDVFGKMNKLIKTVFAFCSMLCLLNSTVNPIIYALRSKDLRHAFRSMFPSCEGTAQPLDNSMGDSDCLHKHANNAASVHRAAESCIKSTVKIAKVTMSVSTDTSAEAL

[11] = molecular target: Serine/threonine-protein kinase ULK1 (Homo sapiens) (UniProt O75385); details: Compound concentration 1000.0 nM
Serine/threonine-protein kinase ULK1 (Homo sapiens), sequence (O75385 whole entry): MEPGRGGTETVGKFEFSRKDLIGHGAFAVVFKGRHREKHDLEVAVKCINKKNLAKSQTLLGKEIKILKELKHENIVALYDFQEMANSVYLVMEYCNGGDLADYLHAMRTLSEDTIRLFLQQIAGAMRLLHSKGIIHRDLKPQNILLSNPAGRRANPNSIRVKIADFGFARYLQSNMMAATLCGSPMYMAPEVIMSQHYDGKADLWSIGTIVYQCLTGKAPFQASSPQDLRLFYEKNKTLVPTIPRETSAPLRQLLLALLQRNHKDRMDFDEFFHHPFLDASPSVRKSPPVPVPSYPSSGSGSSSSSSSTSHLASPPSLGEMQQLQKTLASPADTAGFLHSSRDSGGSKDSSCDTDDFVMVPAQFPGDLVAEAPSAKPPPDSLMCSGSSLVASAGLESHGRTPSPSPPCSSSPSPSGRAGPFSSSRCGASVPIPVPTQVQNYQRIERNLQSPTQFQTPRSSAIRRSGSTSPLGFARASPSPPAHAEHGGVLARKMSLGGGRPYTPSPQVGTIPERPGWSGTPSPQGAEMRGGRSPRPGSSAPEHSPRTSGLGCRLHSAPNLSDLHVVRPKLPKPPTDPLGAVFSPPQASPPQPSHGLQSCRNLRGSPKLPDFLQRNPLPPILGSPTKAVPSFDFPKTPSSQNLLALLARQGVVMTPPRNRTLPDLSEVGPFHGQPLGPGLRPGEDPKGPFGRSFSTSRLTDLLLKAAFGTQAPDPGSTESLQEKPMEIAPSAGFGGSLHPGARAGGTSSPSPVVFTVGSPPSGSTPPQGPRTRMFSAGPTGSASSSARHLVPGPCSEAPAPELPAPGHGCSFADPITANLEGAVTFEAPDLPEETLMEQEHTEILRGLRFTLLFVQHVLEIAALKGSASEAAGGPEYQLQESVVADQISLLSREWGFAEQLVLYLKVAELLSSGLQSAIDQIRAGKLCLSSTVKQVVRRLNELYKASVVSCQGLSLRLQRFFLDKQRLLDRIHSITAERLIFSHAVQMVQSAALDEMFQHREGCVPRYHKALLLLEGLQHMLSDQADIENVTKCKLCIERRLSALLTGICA

[12] = test system: Receptor-type tyrosine-protein kinase FLT3 (Homo sapiens), P36888 [UNDEFINED MUTATION]; details: Compound concentration 1000.0 nM
[13] = molecular target: MAP kinase-interacting serine/threonine-protein kinase 1 (Homo sapiens) (UniProt Q9BUB5); details: Compound concentration 1000.0 nM
MAP kinase-interacting serine/threonine-protein kinase 1 (Homo sapiens), sequence (Q9BUB5 whole entry, looked up): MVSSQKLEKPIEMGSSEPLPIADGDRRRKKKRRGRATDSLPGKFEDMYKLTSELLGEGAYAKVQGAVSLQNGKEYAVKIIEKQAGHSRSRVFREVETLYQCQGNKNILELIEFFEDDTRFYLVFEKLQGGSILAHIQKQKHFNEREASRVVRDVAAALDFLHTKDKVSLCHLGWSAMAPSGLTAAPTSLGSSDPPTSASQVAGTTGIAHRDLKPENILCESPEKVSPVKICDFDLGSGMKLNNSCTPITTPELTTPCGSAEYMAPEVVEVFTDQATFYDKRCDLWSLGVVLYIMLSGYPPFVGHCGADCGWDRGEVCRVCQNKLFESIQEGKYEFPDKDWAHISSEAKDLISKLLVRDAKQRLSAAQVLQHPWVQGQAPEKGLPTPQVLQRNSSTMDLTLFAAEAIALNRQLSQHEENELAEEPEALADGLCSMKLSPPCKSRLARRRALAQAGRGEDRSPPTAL

[14] = molecular target: Cyclin-dependent kinase 11B (Homo sapiens) (UniProt P21127); details: Compound concentration 1000.0 nM
[15] = molecular target: Calcium/calmodulin-dependent protein kinase kinase 1 (Homo sapiens) (UniProt Q8N5S9); details: Compound concentration 1000.0 nM
Calcium/calmodulin-dependent protein kinase kinase 1 (Homo sapiens), sequence (Q8N5S9 whole entry, looked up): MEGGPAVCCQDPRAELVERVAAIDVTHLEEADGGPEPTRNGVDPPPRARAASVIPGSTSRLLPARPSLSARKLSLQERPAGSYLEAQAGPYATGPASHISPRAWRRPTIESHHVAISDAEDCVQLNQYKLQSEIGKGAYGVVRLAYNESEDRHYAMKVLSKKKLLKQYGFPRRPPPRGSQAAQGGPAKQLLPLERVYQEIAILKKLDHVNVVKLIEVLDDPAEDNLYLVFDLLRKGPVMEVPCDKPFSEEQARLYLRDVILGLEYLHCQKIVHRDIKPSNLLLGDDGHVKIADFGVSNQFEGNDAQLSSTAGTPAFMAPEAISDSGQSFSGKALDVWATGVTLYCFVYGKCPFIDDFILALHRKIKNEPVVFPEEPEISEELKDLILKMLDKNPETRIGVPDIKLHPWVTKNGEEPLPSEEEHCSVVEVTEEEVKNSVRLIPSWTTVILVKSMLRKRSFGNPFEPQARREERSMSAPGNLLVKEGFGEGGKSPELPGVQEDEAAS

[16] = molecular target: Mast/stem cell growth factor receptor Kit (Homo sapiens) (UniProt P10721); details: Compound concentration 1000.0 nM
[17] = molecular target: Serine/threonine-protein kinase 4 (Homo sapiens) (UniProt Q13043); details: Compound concentration 1000.0 nM
[18] = molecular target: Microtubule-associated serine/threonine-protein kinase 1 (Homo sapiens) (UniProt Q9Y2H9); details: Compound concentration 1000.0 nM
[19] = molecular target: Protein kinase C theta type (Homo sapiens) (UniProt Q04759); details: Compound concentration 1000.0 nM
[20] = molecular target: Serine/threonine-protein kinase B-raf (Homo sapiens) (UniProt P15056); details: Compound concentration 1000.0 nM
[21] = test system: Epidermal growth factor receptor (Homo sapiens), P00533 [L858R,T790M]; details: Compound concentration 1000.0 nM
[22] = molecular target: ALK tyrosine kinase receptor (Homo sapiens) (UniProt Q9UM73); details: Compound concentration 1000.0 nM
[23] = molecular target: Homeodomain-interacting protein kinase 3 (Homo sapiens) (UniProt Q9H422); details: Compound concentration 1000.0 nM
[24] = molecular target: Serine/threonine-protein kinase 17A (Homo sapiens) (UniProt Q9UEE5); details: Compound concentration 1000.0 nM
[25] = molecular target: Tyrosine-protein kinase HCK (Homo sapiens) (UniProt P08631); details: Compound concentration 1000.0 nM
[26] = test system: Receptor-type tyrosine-protein kinase FLT3 (Homo sapiens), P36888 [D835V]; details: Compound concentration 1000.0 nM
[27] = molecular target: Muscarinic acetylcholine receptor M3 (Homo sapiens) (UniProt P20309); details: Compound concentration 10.0 uM
[28] = molecular target: Serine/threonine-protein kinase TAO1 (Homo sapiens) (UniProt Q7L7X3); details: Compound concentration 1000.0 nM
[29] = molecular target: Beta-2 adrenergic receptor (Homo sapiens) (UniProt P07550); details: Compound concentration 10.0 uM
[30] = molecular target: Mitogen-activated protein kinase kinase kinase kinase 2 (Homo sapiens) (UniProt Q12851); details: Compound concentration 1000.0 nM
[31] = molecular target: SRSF protein kinase 2 (Homo sapiens) (UniProt P78362); details: Compound concentration 1000.0 nM
[32] = molecular target: Ephrin type-B receptor 4 (Homo sapiens) (UniProt P54760); details: Compound concentration 1000.0 nM
[33] = molecular target: Tyrosine-protein kinase BTK (Homo sapiens) (UniProt Q06187); details: Compound concentration 1000.0 nM
Tyrosine-protein kinase BTK (Homo sapiens), sequence (Q06187 whole entry): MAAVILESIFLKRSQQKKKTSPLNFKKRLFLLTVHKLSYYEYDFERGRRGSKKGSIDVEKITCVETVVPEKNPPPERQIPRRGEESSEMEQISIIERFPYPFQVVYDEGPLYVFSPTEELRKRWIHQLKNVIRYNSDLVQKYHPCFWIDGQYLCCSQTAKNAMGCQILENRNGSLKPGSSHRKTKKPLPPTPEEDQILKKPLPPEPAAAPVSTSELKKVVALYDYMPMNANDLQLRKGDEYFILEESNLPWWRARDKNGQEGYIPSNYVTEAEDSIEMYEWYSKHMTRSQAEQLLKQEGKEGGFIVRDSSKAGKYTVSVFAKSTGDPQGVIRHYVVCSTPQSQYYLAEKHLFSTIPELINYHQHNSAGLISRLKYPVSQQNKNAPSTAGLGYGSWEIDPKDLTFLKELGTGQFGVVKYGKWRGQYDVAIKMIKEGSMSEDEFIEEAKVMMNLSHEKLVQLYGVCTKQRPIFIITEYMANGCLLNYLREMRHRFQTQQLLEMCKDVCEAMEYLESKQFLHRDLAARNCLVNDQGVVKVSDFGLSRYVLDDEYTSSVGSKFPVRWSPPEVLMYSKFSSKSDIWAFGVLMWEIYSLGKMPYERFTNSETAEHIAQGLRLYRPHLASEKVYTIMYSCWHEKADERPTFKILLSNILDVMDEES

[34] = molecular target: Mitogen-activated protein kinase kinase kinase 9 (Homo sapiens) (UniProt P80192); details: Compound concentration 1000.0 nM
[35] = molecular target: Mitogen-activated protein kinase 7 (Homo sapiens) (UniProt Q13164); details: Compound concentration 1000.0 nM
[36] = molecular target: Serine/threonine-protein kinase PAK 4 (Homo sapiens) (UniProt O96013); details: Compound concentration 1000.0 nM
[37] = molecular target: Receptor-type tyrosine-protein kinase FLT3 (Homo sapiens) (UniProt P36888); details: Compound concentration 1000.0 nM
[38] = molecular target: Tyrosine-protein kinase JAK1 (Homo sapiens) (UniProt P23458); details: Compound concentration 1000.0 nM
[39] = molecular target: Cyclin-dependent kinase 8 (Homo sapiens) (UniProt P49336); details: Compound concentration 1000.0 nM
[40] = molecular target: Glycogen synthase kinase-3 beta (Homo sapiens) (UniProt P49841); details: Compound concentration 1000.0 nM
Glycogen synthase kinase-3 beta (Homo sapiens), sequence (P49841 whole entry, looked up): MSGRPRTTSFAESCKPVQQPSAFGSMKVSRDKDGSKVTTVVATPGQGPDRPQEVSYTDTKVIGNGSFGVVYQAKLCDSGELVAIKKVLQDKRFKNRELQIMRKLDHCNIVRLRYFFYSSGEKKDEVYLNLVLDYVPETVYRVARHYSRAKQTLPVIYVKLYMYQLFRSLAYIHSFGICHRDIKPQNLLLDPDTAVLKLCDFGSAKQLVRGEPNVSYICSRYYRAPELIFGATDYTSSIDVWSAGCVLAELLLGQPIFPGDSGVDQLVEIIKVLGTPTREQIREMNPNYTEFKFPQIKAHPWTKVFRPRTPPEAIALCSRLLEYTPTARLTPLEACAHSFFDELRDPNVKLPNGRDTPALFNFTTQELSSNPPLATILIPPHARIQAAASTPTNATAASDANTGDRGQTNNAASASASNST

[41] = molecular target: Interleukin-1 receptor-associated kinase 1 (Homo sapiens) (UniProt P51617); details: Compound concentration 1000.0 nM
[42] = molecular target: SRSF protein kinase 1 (Homo sapiens) (UniProt Q96SB4); details: Compound concentration 1000.0 nM
[43] = test system: Mast/stem cell growth factor receptor Kit (Homo sapiens), P10721 [A829P]; details: Compound concentration 1000.0 nM
[44] = molecular target: Dual specificity tyrosine-phosphorylation-regulated kinase 2 (Homo sapiens) (UniProt Q92630); details: Compound concentration 1000.0 nM
[45] = molecular target: Beta-2 adrenergic receptor (Rattus norvegicus) (UniProt P10608); test: BETA/R Eurofins-Panlabs selectivity data (BI); details: Compound concentration 10.0 uM
Beta-2 adrenergic receptor (Rattus norvegicus), sequence (P10608 whole entry, looked up): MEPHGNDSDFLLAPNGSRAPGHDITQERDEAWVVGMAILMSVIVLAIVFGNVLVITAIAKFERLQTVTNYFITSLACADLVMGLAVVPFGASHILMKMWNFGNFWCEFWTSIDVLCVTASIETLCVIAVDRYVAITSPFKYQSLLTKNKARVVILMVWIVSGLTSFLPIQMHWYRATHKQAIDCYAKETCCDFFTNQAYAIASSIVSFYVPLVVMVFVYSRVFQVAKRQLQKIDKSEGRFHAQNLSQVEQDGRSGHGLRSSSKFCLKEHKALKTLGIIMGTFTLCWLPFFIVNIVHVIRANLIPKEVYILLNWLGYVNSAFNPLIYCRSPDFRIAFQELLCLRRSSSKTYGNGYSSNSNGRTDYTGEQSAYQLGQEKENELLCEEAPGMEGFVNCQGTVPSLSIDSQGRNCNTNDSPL

CCOCCn1cc(C(=O)Nc2ccc(-n3nc(-c4cccnc4)cc3C(F)(F)F)cn2)ccc1=O [BI 1935]
active: residual activity [38] 37%
inactive: residual activity [1] 100% | residual activity [2] 90% | residual activity [3] 91% | residual activity [4] 98% | residual activity [5] 90% | residual activity [6] 68% | residual activity [7] 100% | residual activity [8] 100% | residual activity [9] 91% | residual activity [10] 81% | residual activity [11] 76% | residual activity [12] 56% | residual activity [13] 97% | residual activity [14] 100% | residual activity [15] 100% | residual activity [16] 100% | residual activity [17] 100% | residual activity [18] 100% | residual activity [19] 73% | residual activity [20] 95% | residual activity [21] 96% | residual activity [22] 79% | residual activity [23] 76% | residual activity [24] 100% | residual activity [25] 93% | residual activity [26] 100% | inhibition [27] 10.2% | residual activity [28] 87% | inhibition [29] -1.17% | residual activity [30] 76% | residual activity [31] 100% | residual activity [32] 100% | residual activity [33] 79% | residual activity [34] 93% | residual activity [35] 86% | residual activity [36] 100% | residual activity [37] 87% | residual activity [39] 100% | residual activity [40] 86% | residual activity [41] 84% | residual activity [42] 98% | residual activity [43] 100% | residual activity [44] 100% | residual activity [45] 98%
